Data: patent publication US7932284B2, “Indole sulfonamide modulators of progesterone receptors” (Eli Lilly and Company, priority 2006, dated 2011)

What was measured:
[1] = system: uterine C3 expression (complement 3 mRNA; PR antagonist potential); assay: C3 Rat Uterine Assay; assay type: in vivo, Sprague Dawley female rats; conditions: immature female rats, oral gavage, with R5020 0.1 mg/kg sc and ethynyl estradiol 50 ug/kg, 3 doses at 24 hour intervals
Method: Addition of a potential PR antagonist can then neutralize the blocking effect of the PR agonist, resulting in a measurable increase in uterine C3 expression.
Immature Sprague Dawley female rats (21 days old, each approximately 50 g in weight) are first administered the R5020 progestin subcutaneously in sesame oil vehicle at 0.1 mg/kg. The rats are then treated with ethynyl estradiol at a dose of 50 ug/kg plus a compound of interest at doses ranging from 1-30 mg/kg made up in 20% β-hydroxycyclodextran in water for an oral gavage volume of 0.3 ml. This dosing is done 3 times at 24 hour intervals. The control groups include rats treated with one of the following (administered and dosed as described above): 1) estrogen (E2) vehicle+R5020 vehicle, 2) E2+R5020 vehicle, 3) E2+R5020, and 4) E2+R5020+asoprisnil (comparator compound, 5 mg/kg). The rats are sacrificed by decapitation 2 hours after the final dose (50 hours total dosing time). Uteri are removed and cleaned of adipose tissue, and ½ (1 uterine horn) is flash-frozen in liquid nitrogen. The tissue is homogenized in TRIzol reagent using lysing matrix beads.
The RNA is isolated by chloroform extraction of the homogenized tissue, followed by isopropanol precipitation of the aqueous layer. The RNA is further purified by binding to a silica-gel based membrane or magnetic bead with a nucleic acid binding surface, and then eluted off with water. The RNA is converted to single strand cDNA via reverse transcriptase. These cDNA templates are analyzed by quantitative real-time PCR which multiplexes the C3 primer/probe set to an endogenous control gene. The resulting C3 data is normalized to the internal control. (Adapted from Lundeen, S. G. et al. J. Steroid Biochemistry and Molecular Biology, 2001, 78, 137-143.) Table 9 below provides data for representative compounds prepared according to the present invention.

[2] = system: uterine endometrial transformation; assay: McPhail Assay; assay type: in vivo, New Zealand White Rabbits; conditions: rabbits; for McPhail Index** @ 10 mpk (Antagonist Mode): in combination with progesterone on days 7-12, antagonist mode; for McPhail Index** @ 30 mpk (Agonist Mode): compound alone on days 7-12, agonist mode
Method: The effects of progesterone receptor modulators on uterine endometrial transformation are evaluated in New Zealand White Rabbits (Harlan, 800-900 g) using the McPhail assay adapted from McPhail, MK. J Physiol, 1934:145-156. To evaluate antagonistic effects of compounds, the rabbits are treated sc with cyclodextrin-encapsulated 17-β-estradiol (Sigma, 10.52 ug/kg/day in 1 ml of saline) on days 1-6. The rabbits are then treated sc with progesterone (Sigma, 1.0 mg/kd/day in 1 ml of corn oil) in combination with compound of the present invention (in 15% Povidone K12, 10% Pluronic F68 (poloxamer 188) in deionized water (DIW): probe sonicated to mean<2 micron, 3 ml dose volume) on days 7-12. To evaluate agonist effects of compound, the rabbits are treated with either a compound of interest or progesterone alone on days 7-12. On day 13 the animals are sacrificed, uteri removed and fixed in zinc formalin (Richard-Allan Scientific). The fixed uteri are sectioned into 2-3 mm transverse slices and stained with haematoxylin and eosin. A total of six slices (a proximal, medial and distal section from each uterine horn) are evaluated histologically and the progestational effect is scored using the McPhail index. The McPhail test can be used to identify SPRMs.

[3] = molecular target: T1, human progesterone receptor (PR) (Homo sapiens, UniProt P06401); assay: PR CTF assay (co-transfected HEK293 cells, GRE-luciferase reporter); assay type: cell-based; conditions: antagonist mode, with 0.05-0.08 nM R5020, 24 h
T1 construct: expressed in transfected cells; host or cells: HEK293
T1 sequence (P06401 1-933): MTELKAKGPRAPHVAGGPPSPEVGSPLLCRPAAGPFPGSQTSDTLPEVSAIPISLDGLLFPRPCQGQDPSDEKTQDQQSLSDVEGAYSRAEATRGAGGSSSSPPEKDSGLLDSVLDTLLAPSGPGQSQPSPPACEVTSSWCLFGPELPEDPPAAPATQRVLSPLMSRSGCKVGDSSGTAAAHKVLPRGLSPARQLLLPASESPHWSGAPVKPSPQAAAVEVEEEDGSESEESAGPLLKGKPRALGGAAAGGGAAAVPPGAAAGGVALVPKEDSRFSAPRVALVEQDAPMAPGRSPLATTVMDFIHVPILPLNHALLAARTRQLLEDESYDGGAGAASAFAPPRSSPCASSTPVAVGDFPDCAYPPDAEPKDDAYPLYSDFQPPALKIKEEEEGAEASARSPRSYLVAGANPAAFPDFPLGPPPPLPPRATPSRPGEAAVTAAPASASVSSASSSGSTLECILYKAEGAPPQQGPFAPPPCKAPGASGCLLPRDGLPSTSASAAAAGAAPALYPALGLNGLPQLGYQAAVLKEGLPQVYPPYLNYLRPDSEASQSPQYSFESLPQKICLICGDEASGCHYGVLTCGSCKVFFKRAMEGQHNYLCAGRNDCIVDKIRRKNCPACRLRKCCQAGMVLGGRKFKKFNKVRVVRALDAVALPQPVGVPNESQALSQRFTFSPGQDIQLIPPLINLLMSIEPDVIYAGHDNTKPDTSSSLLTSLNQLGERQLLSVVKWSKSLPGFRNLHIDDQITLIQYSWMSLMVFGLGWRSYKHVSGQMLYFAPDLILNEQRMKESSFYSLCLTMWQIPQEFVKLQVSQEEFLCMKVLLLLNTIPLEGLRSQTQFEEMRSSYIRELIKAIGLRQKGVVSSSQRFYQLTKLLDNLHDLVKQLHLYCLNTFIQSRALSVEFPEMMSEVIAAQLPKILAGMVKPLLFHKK
Method: Human embryonic kidney HEK293 cells are co-transfected using Fugene. Briefly, the reporter plasmid pGL3 containing two copies of GRE (glucocorticoid response element ^5'[NT]3) and TK promoter upstream of the luciferase reporter cDNA is transfected with a plasmid constitutively expressing human progesterone receptor (PR), using viral CMV promoter. Cells are transfected in T225 cm^2 flasks in DMEM media with 5% charcoal-stripped Fetal Bovine Serum (FBS). After an overnight incubation, transfected cells are trypsinized, plated in 96 well dishes in DMEM media containing 5% charcoal-stripped FBS, incubated for 4 h and then exposed to various concentrations of test compounds in 1:4 dilution increments. In the antagonist assays low concentrations of agonist (0.05-0.08 nM of R5020) is also added to the media. After 24 h of incubation with compounds, cells are lysed and luciferase activity is determined. Data is fit to a 4 parameter-fit logistics curve to determine EC50 and IC50 values. The % efficacy is determined versus maximum stimulation obtained with 30 nM R5020. In the antagonist mode the % inhibition is determined verses the effects of 30 nM R5020 alone.

| Compound | ED50 [1] [mg/kg] | McPhail Index** @ 10 mpk (Antagonist Mode) [2] | McPhail Index** @ 30 mpk (Agonist Mode) [2] | melting point [°C] | IC50 [3] [nM] |
| --- | --- | --- | --- | --- | --- |
| CCCCn1cc(-c2ccc(C#N)c(F)c2)c2ccc(NS(C)(=O)=O)cc21 [Example 53, N-[1-Butyl-3-(4-cyano-3-fluoro-phenyl)-1H-indol-6-yl]-methanesulfonamide] | > 10 | +++ (+++ ≧3) | ++ (++ 2-3) |  |  |
| CC(C)n1cc(-c2ccc([N+](=O)[O-])cc2)c2ccc(NS(C)(=O)=O)cc21 [Example 197, N-[1-Isopropyl-3-(4-nitro-phenyl)-1H-indol-6-yl]-methanesulfonamide] | < 5 | ++ (++ 2-3) | + (+ <2) |  |  |
| CC(C)n1cc(-c2ccc(C#N)c(Cl)c2)c2ccc(NS(C)(=O)=O)cc21 [Example 50, N-[3-(4-Cyano-3-chloro-phenyl)-1-isopropyl-1H-indol-6-yl]-methanesulfonamide] | < 5 | + (+ <2) | + (+ <2) |  |  |
| CC(C)n1cc(-c2cc(F)c(C#N)c(F)c2)c2ccc(NS(C)(=O)=O)cc21 [Example 170, N-[3-(4-Cyano-3,5-difluoro-phenyl)-1-isopropyl-1H-indol-6-yl]-methanesulfonamide] | < 5 | +++ (+++ ≧3) | +++ (+++ ≧3) |  |  |
| CCn1nc(C#N)cc1-c1cn(C(C)C)c2cc(NS(C)(=O)=O)ccc12 [Example 124, N-[3-(5-Cyano-2-ethyl-2H-pyrazol-3-yl)-1-isopropyl-1H-indol-6-yl]-methanesulfonamide] |  |  |  | 144 to 145 |  |
| CC(C)n1cc(-c2ccc(C#N)nc2)c2ccc(NS(C)(=O)=O)cc21 [Example 48, N-[3-(6-Cyano-pyridin-3-yl)-1-isopropyl-1H-indol-6-yl]-methanesulfonamide] | < 5 | + (+ <2) | + (+ <2) |  | ~11.7 |
| CC(C)n1cc(-c2cc(C#N)nn2C)c2ccc(NS(C)(=O)=O)cc21 [Example 121, N-[3-(5-Cyano-2-methyl-2H-pyrazol-3-yl)-1-isopropyl-1H-indol-6-yl]-methanesulfonamide] |  |  |  | 189 to 191 |  |
| Cc1cc(-c2cn(C(C)C)c3cc(NS(C)(=O)=O)ccc23)ccc1C#N [Ex 49, N-[3-(4-Cyano-3-methyl-phenyl)-1-isopropyl-1H-indol-6-yl]-methanesulfonamide] | < 5 |  |  |  |  |
